The subject of data set [1] is Human gammaherpesvirus 8. In words: Antiviral activity against Kaposi's sarcoma-associated herpesvirus infected in African green monkey Vero cells exposed to supernatant from 48 hrs compound treated human iSLK.219 cells infected with KSHV by GFP based microscopy. Format: functional, cell-based. The settings on record: Human gammaherpesvirus 8, Vero.
Data set [2] can be described thus: Cytotoxicity against African green monkey Vero cells assessed as reduction in cell viability after 48 hrs by Alamar blue assay. The settings on record: chlorocebus sabaeus. Format: toxicity, cell-based.
The nature of data set [3]: Selectivity index, ratio of CC50 for African green monkey Vero cells to EC50 for Kaposi's sarcoma-associated herpesvirus infected in African green monkey Vero cells. It counts as toxicity, cell-based. The settings on record: read-out: Ratio CC50/EC50.

pEC50: −log10 of the molar value.

As to `CC(C)C(=O)c1c(O)cc(O)c(C[C@@H]2[C@@H](C(C)(C)O)CC[C@]2(C)O)c1O`, the negative-log EC50 (pEC50) in data set [1] is 3.80. Also, in data set [2], the CC50 at 48 h is above 300 µM. The selectivity ratio in data set [3] was above 1.89.
Molecule `CC(C)C(=O)c1c(O)cc(O)c2c1OC(C)(C)[C@@H]1CC[C@@](C)(O)[C@H]1C2` gave a negative-log EC50 (pEC50) in data set [1] of 4.40. Moreover, the cytotoxic concentration (CC50) at 48 h in data set [2] was above 300 µM.
In data set [1], `CC(C)C(=O)c1c(O)cc(O)c2c1O[C@@]1(C)CC[C@@H](C(C)(C)O)[C@@H]2[C@H]1O` gave a negative-log EC50 (pEC50) of 3.69. The cytotoxic concentration (CC50) at 48 h in data set [2] was above 500 µM. Moreover, the selectivity ratio in data set [3] was above 2.46.
As to `CC(C)C(=O)c1c(O)cc(O)c2c1OC(C)(C)[C@H]1CC[C@](C)(O)[C@@H]1C2`, the pEC50 in data set [1] was 4.75. Further, the CC50 at 48 h in data set [2] turned out to be 221 µM.
Turning to `CC(C)C(=O)c1c(O)cc(O)c(C[C@H]2[C@H](C(C)(C)O)CC[C@@]2(C)O)c1O`, the pEC50 in data set [1] was 4.40. For the same molecule, in data set [2], the CC50 at 48 h was above 300 µM. Moreover, in data set [3], the selectivity ratio is above 7.5.
The corresponding values for `CC(C)C(=O)c1c(O)cc(O)c2c1O[C@]1(C)CC[C@H](C(C)(C)O)[C@H]2[C@@H]1O` are 3.85, above 500 µM and above 3.55.
Turning to `CC(C)C(=O)c1c(O)cc(O)c2c1O[C@]1(C)CC[C@@H](C(C)(C)O)O[C@@H]1C2`, in data set [1], the pEC50 is 4.54. Further, the cytotoxic concentration (CC50) at 48 h in data set [2] was 174 µM.
In the case of `CC(C)C(=O)c1c(O)cc(O)c2c1O[C@@]1(C)CC[C@H](C(C)(C)O)O[C@H]1C2`, the negative-log EC50 (pEC50) in data set [1] is 5.06. For the same molecule, the CC50 at 48 h in data set [2] came to 141 µM.

For the origin of these results see ChEMBL document CHEMBL3853282, “(±)-Japonicols A-D, Acylphloroglucinol-Based Meroterpenoid Enantiomers with Anti-KSHV Activities from Hypericum japonicum” (J Nat Prod, 2016).
